In patent publication US8044057B2, “Methods for suppressing an immune response or treating a proliferative disorder” (The United States of America as represented by the …, priority 2003, dated 2011):

Assays:
A549 cells = test: Microarray gene expression analysis in A549 cells; format: cell-based, human; details: inhibitor 1 hour before L/I for 6 hours
Procedure: Microarray gene expression analyses have been performed in which A549 cells were incubated without or with LY294002 or wortmannin for 1 hour before the addition of L/I for 6 hours. […] The mRNAs of other kinases that were increased by LY294002 included that encoding CK2α′ (1.8-fold; GenBank accession #M55268). Since CK2 can regulate both G1 and G2/M cell cycle transitions, the effects of LY294002 and LY303511 on CK2 activity were assessed.

recombinant CK2 = target: T1, recombinant CK2 (Homo sapiens, UniProt P68400); test: Casein kinase 2 activity kit, 32P incorporation into substrate peptide; format: biochemical
T1 construct: purchased Upstate Biotechnology 17-132 (number of the activity kit, not of the enzyme)
T1 sequence (P68400 whole entry): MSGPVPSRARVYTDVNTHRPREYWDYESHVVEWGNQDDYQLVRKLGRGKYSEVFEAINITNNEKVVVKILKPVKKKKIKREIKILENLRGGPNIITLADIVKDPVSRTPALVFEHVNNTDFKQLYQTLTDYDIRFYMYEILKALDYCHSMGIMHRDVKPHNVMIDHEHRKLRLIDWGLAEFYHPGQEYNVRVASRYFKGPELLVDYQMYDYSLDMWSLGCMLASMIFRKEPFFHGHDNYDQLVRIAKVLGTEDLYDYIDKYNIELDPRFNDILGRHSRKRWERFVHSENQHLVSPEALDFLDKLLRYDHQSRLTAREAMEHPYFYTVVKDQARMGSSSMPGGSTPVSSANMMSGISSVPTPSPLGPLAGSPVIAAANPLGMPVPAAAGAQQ
T1 sequence (P67870 2-215 partner limits assumed): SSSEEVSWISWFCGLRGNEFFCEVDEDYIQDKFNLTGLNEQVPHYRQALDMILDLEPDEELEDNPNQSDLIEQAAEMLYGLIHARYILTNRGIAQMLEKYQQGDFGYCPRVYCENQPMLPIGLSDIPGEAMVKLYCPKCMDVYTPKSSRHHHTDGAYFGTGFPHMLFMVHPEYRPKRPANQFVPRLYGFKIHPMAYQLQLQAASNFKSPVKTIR
Procedure: FIGS. 5A-5B are bar graphs showing that LY303511 inhibits the cell cycle by causing combined G1 and G2/M arrest and that LY303511 inhibits CK2 activity. For the data shown in FIG. 5A, PASM cells were cultured in medium with FBS for 48 hours before the addition of 0-100 μM LY303511 without or with raparnycin, 400 ng/ml, for 24 hours. Cells were then harvested and incubated with propidium iodide for 2 hours before counting using a Becton-Dickson FACSCalibur. Data are the means (±SEM) of percentages of cells in G1, S, or G2/M phase of the cell cycle in three experiments with duplicate assays. *p<0.05 vs. DMSO control, or †p<0.05 vs. 10 μM LY303511, by Student's t—test. FIG. 5B is a bar graph showing that LY303511 or LY294002 inhibits CK2 in vitro. As per the manufacturer (Upstate Biotechnologies), 0 or 100 ng of recombinant CK2 were incubated with CK2 substrate peptide and ^32P-γ-ATP for 10 min with 1% DMSO or inhibitors as indicated. Data are the means of values for samples with inhibitors expressed as percentage of that for control, which was (mean±SEM) 0.2±0.03 pmol phosphate/100 ng protein/10 min. Data are from three experiments performed in duplicate. *p<0.05 by Student's t-test when compared to DMSO control.
One specific assay for casein kinase 2 activity is available commercially as a kit from Upstate Biotechnology (New York). The assay is based on phosphorylation of a specific substrate (CK-2 substrate peptide) using the transfer of the gamma-phosphate of ^32P-ATP by casein kinase 2 during a 10 minute incubation at 30° C. The phosphorylated substrate is then separated from the residual ^32P-ATP using P81 phosphocellulose paper, and quantified by scintillation counting.
Casein kinase 2 (CK2) activity (counts per rninute) was measured using a casein kinase 2 activity kit (Upstate Biotechnology catalogue number 17-132) by incubating recombinant 100 ng CK2, magnesium/ATP cocktail (10 mcCi ^32P-garnma-ATP, 0.675 micromoles MgCl2, 4.5 nmoles ATP), and 10 micromoles peptide substrate (arnino acid sequence RRRDDDSDDD (SEQ ID NO: 1) in 50 mcl assay buffer without or with the indicated concentrations of DMSO (1%), LY294002, LY303511, or rapamycin for 10 minutes at 30° C. Assays were stopped with 20 mcl of 40% trichloroacetic acid, and 25 mcl were spotted on P81 phosphocellulose paper squares before washing 3 times with 0.75% phosphoric acid, and once with acetone. 32P incorporation on the substrate peptide was detected by counting the phosphocellulose squares in 5 ml scintillation fluid using a Packard 100 Tri-Carb liquid scintillation counter.
Measurement of casein kinase 2 (CK2) activity: CK2 activity (counts per minute) was measured using a CK2 activity kit (Upstate, Charlottesville, Va.) by incubating 100 ng of recombinant CK2, rnagnesium/ATP cocktail (10 μCi ^32P-gamma-ATP, 0.675 μmol MgCl2, 4.5 nmol ATP), and 10 μmol peptide substrate (amino acid sequence RRRDDDSDDD) in 50 μl assay buffer (20 mM MOPS, pH 7.2, 5 mM EGTA, 25 mM β-glycerol phosphate, 1 mM sodium orthovanadate, 1 mM dithiothreitol) without or with the indicated concentrations of LY294002, LY303511, wortmannin or rapamycin in 1% DMSO for 10 min at 30° C. Assays were stopped with 20 μl of 40% trichloroacetic acid, and samples (25 μl) of supernatant were applied to P81 phosphocellulose paper squares, which were then washed three times with 0.75% phosphoric acid, and once with acetone. ^32P in the substrate peptide was quantified using a Packard 100 Tri-Carb liquid scintillation counter on phosphocellulose squares in 5 ml of scintillation fluid. Activity is expressed as pmol phosphate incorporated per 10 minutes. CK2 activity measured in the presence of inhibitors was divided by that measured for the DMSO control (=100% control).

With O=c1cc(N2CCOCC2)oc2c(-c3ccccc3)cccc12 [LY294002, 2-(4-morpholinyl)-8-phenyl-4H-1-benzopyran-4-one, reference compound] the “levels of mTOR mRNA” value (A549 cells) was 1.7 fold, the “mRNA encoding CK2α′” value (A549 cells) was 1.8 fold and the CK2 activity (recombinant CK2; 100 ng recombinant CK2, 10 min at 30° C.) was “concentration-dependent inhibition of CK2 activity”. The “CK2 IC50 relative to that for LY303511” value (recombinant CK2; recombinant CK2 in vitro) was “one tenth” and the IC50 (recombinant CK2; recombinant CK2 in vitro, read-out: approximate IC50 for CK2) was roughly 10 µM.
